Patent US10335494B2, “Combination of aurora kinase inhibitors and anti-CD30 antibodies” (Millennium Pharmaceuticals, Inc., priority 2013, dated 2019)

Test system: SR-786 tumor cells (SR786 xenograft ALCL model)
Test: In vivo tumor efficacy model: SR786 xenograft ALCL model, SGN35 and MLN8237 alone or in combination
Set-up: species or system CB17 SCID female mice
Conditions: for average tumor volume day 15 / average tumor volume day 21: in mm³
Method: SR-786 (4.0×10^6) tumor cells in RPMI-1640 media were aseptically injected into the subcutaneous space in the right dorsal flank of CB17 SCID female mice (Taconic Farms, Inc) using a 26 G 5/8 needle.
Brentuximab vedotin (SGN35), one vial (Seattle Genetics) was reconstituted in 10.5 ml sterile water to give a stock solution at 4.76 mg/ml concentration. The stock solution was formulated in 0.9% saline to reach the desired concentration and administered by intraperitoneal injection (IP) q4Dx21 days at 0.3 mg/kg and 0.4 mg/kg.
MLN8237 was formulated in 10% hydroxypropyl-beta-cyclodextrin and 1% sodium bicarbonate (10% HPbCD+1% NaHCO3) and administered by oral injection (1 cc syringe, 20-22 gauge) on QD schedule at 10 mg/kg and 20 mg/kg for 21 days. MLN8237 as used in the experimental section refers to alisertib sodium salt and the amount referenced is the amount of alisertib used.
Tumors were measured twice weekly using a vernier caliper. Tumor volumes were calculated using standard procedures (0.5×[…]). When the tumors reached a volume of approximately 200 mm^3 (SR-786), mice were randomized into 6-8 groups as described in the tables below, and injected with vehicle, MLN8237 or SGN35 or the combination of MLN8237 with SGN35, at various doses as described below in Tables 1 and 2. Tumor size and body weight were measured approximately twice a week for the duration of the study. Mice were euthanized when their tumor volume reached 10% of their body weight, or when the average tumor volume of a treatment or control group reached approximately 2000 mm^3. Tumor growth continued to be monitored after the dosing period in this study. Average tumor volume is reported as a function of time for selected groups in FIG. 1A and FIG. 1B.
The synergy analysis is based on the tumor volume data from day 0 to 21. Volume measurements below 25 cubic mm are excluded from the analysis because very low volumes cannot be measured accurately. The remaining measurements are log transformed and fit to a simple linear model with the measurement day as a covariate. The data are fit separately for the different animals to yield an estimated tumor growth rate for each animal in each treatment group. Based on the growth rates, the synergy score for the combination of agents A and B is defined as 100*(mean(μAB)−mean(μA)−mean(μB)+mean(μctl))/mean(μctl): where μAB, μA, μB, and μctl are the mean tumor growth rates for animals in the combination group, the A group, the B group, and the control group, respectively. The standard error of the synergy score is computed based on the variation in the growth rates among the animals. […] If the P-value is above 0.05, then the combination is considered to be additive. If the P-value is below 0.05, and the synergy score is less than zero, then the combination is considered to be synergistic. […] Otherwise, the combination is classified as antagonistic. Results

| Compound | average tumor volume day 15 (0.3 mg/kg SGN35, Q4d, I.P) | average tumor volume day 21 (0.3 mg/kg SGN35, Q4d, I.P) | average tumor volume day 15 (0.4 mg/kg SGN35, Q4d, I.P) | average tumor volume day 21 (0.4 mg/kg SGN35, Q4d, I.P) | tumor growth compared to the control vehicle group (single agent SGN35 0.3 and 0.4 mg/kg I.P Q4d) | average tumor volume day 15 (10 mg/kg MLN8237, QD, P.O) | average tumor volume day 21 (10 mg/kg MLN8237, QD, P.O) | average tumor volume day 15 (20 mg/kg MLN8237, QD, P.O) | average tumor volume day 21 (20 mg/kg MLN8237, QD, P.O) | tumor growth compared to the control vehicle group (single agent MLN8237 P.O 10 mg/kg and 20 mg/kg QD) |
| --- | --- | --- | --- | --- | --- | --- | --- | --- | --- | --- |
| SGN35 | 1136.1 | 1676 | 491.3 | 553.8 | inhibited tumor growth |  |  |  |  |  |
| COc1cc(Nc2ncc3c(n2)-c2ccc(Cl)cc2C(c2c(F)cccc2OC)=NC3)ccc1C(=O)O [MLN8237, 4-{[9-chloro-7-(2-fluoro-6-methoxyphenyl)-5H-pyrimido[5,4-d][2]benzazepin-2-yl]amino}-2-methoxybenzoic acid] |  |  |  |  |  | 625.4 | 1121 | 387.1 | 576.4 | inhibited tumor growth |
